For the experiment, the target named is Human recombinant carboxy-terminal his-tagged LDHA (amino acids 2-332) (Homo sapiens, UniProt P00338). The experiment in a line: LDHA enzyme inhibition assay (NADH fluorescence). The conditions noted are these: LDHA IC50 (μM), 1 nM LDHA, NADH and pyruvate, stereochemistry of tested sample given.
Experimental: Test compounds were diluted in 100% DMSO with 1:3 serial dilutions. […] For the enzyme reaction, serially diluted compounds were added to a mixture of enzyme and NADH. […] Following the baseline read, pyruvate was added to the assay plates and the plates were read with excitation 340 nm and emission 480 nm for 10 minutes every 2.5 seconds. A suitable linear timeframe was selected (150-400 s) to calculate the slope of each concentration tested. The raw data were fitted to 4-parameter dose-response curves using the following equation:
fit=(A+((B−A)/(1+((C/x)̂D))))
inv=(C/((((B−A)/(y−A))−)̂(1/D)))
res=(y−fit) • where A=minimum y, B=maximum y, C=50% y max, and D=slope factor.
The curve bottom was set to the background rate (initial 5 second recording prior to addition of pyruvate) and curve top was set to no inhibitor (DMSO only) control wells rate.
The compounds of the present invention were tested for their capacity to inhibit LDHA activity and activation as described in the enzyme inhibition assay described above.
Turning to `O=C1CC(c2ccsc2)(c2cccc(OCCC3CCCCC3)n2)NC(=O)C1Sc1ccccc1Cl` (single isomer, unassigned) [Example 161, 3-(2-chlorophenyl)sulfanyl-6-[6-(2-cyclohexylethoxy)-2-pyridyl]-6-(3-thienyl) piperidine-2,4-dione], the IC50 was found to be 0.019 µM.
Under `O=C1CC(c2ccsc2)(c2cccc(OCC3CCOCC3)n2)NC(=O)C1Sc1ccccc1Cl` (single isomer, unassigned) [Example 163, 3-((2-chlorophenyl)thio)-6-(6-((tetrahydro-2H-pyran-4-yl)methoxy)pyridin-2-yl)-6-(thiophen-3-yl)piperidine-2,4-dione] stands 0.194 µM.
For `O=C1CC(c2ccsc2)(c2cccc(OCC3CC(F)(F)C3)n2)NC(=O)C1Sc1ccccc1Cl` (single isomer, unassigned) [Example 165], the IC50 is 0.004 µM.
Under `O=C1CC(c2ccsc2)(c2cccc(OCCC3CCC3)n2)NC(=O)C1Sc1ccccc1Cl` (single isomer, unassigned) [Example 168, 3-(2-chlorophenyl)sulfanyl-6-[6-(2-cyclobutylethoxy)-2-pyridyl]-6-(3-thienyl) piperidine-2,4-dione] stands 0.19 µM; under `CC(C)(O)CCOc1cccc(C2(c3ccsc3)CC(=O)C(Sc3ccccc3Cl)C(=O)N2)n1` (single isomer, unassigned) [Example 170, 3-(2-chlorophenyl)sulfanyl-6-[6-(3-hydroxy-3-methyl-butoxy)-2-pyridyl]-6-(3-thienyl)piperidine-2,4-dione], 0.145 µM; under `COc1cc(F)cc(Cc2cccc(C3(c4ccsc4)CC(=O)C(Sc4ccccc4Cl)C(=O)N3)n2)c1` (single isomer, unassigned) [Example 171, 3-(2-chlorophenyl)sulfanyl-6-[6-[(3-fluoro-5-methoxy-phenyl)methyl]-2-pyridyl]-6-(3-thienyl) piperidine-2,4-dione], 0.101 µM.
In the case of `O=C1CC(c2ccsc2)(c2cccc(Oc3ccccc3Br)n2)NC(=O)C1Sc1ccccc1Cl` (single isomer, unassigned) [Example 172, 6-[6-(2-bromophenoxy)-2-pyridyl]-3-(2-chloro-phenyl)sulfanyl-6-(3-thienyl)piperidine-2,4-dione] it was 0.056 µM; in that of `O=C1CC(c2ccsc2)(c2cccc(Oc3cc(F)cc(CO)c3)n2)NC(=O)C1Sc1ccccc1Cl` (single isomer, unassigned) [Example 176, 3-(2-chlorophenyl)sulfanyl-6-[6-[3-fluoro-5-(hydroxymethyl)phenoxy]-2-pyridyl]-6-(3-thienyl) piperidine-2,4-dione], 0.01 µM.
Under `O=C1CC(c2ccsc2)(c2cccc(Cc3ccccc3)n2)NC(=O)C1Sc1ccccc1Cl` (single isomer, unassigned) [Example 180, 6-(6-benzyl-2-pyridyl)-3-(2-chlorophenyl)sulfanyl-6-(3-thienyl)piperidine-2,4-dione] stands 0.002 µM; under `O=C1CC(c2ccsc2)(c2cccc(OC3CCCCC3)n2)NC(=O)C1Sc1ccccc1Cl` (single isomer, unassigned) [Example 181, 3-(2-chlorophenyl)sulfanyl-6-[6-(cyclohexoxy)-2-pyridyl]-6-(3-thienyl) piperidine-2,4-dione], 0.006 µM; under `CC1(COc2cccc(C3(c4ccsc4)CC(=O)C(Sc4ccccc4Cl)C(=O)N3)n2)CC1` (single isomer, unassigned) [Example 182, 3-(2-chlorophenyl)sulfanyl-6-[6-[(1-methylcyclo-propyl)methoxy]-2-pyridyl]-6-(3-thienyl)piperidine-2,4-dione], 0.056 µM.
On to `CC(Oc1cccc(C2(c3ccsc3)CC(=O)C(Sc3ccccc3Cl)C(=O)N2)n1)C1CC1` (single isomer, unassigned) [Example 184, 3-(2-chlorophenyl)sulfanyl-6-[6-(1-cyclopropylethoxy)-2-pyridyl]-6-(3-thienyl) piperidine-2,4-dione], for which the IC50 turned out to be 0.002 µM.
In the case of `O=C1CC(c2ccsc2)(c2cccc(OCCC3CCCCC3)n2)NC(=O)C1Sc1ccccc1Cl` (single isomer, unassigned) [Example 185, 3-(2-chlorophenyl)sulfanyl-6-[6-(2-cyclohexylethoxy)-2-pyridyl]-6-(3-thienyl) piperidine-2,4-dione] it was 0.055 µM.
Under `O=C1CC(c2ccsc2)(c2cccc(OCC3CCOCC3)n2)NC(=O)C1Sc1ccccc1Cl` (single isomer, unassigned) [Example 187, 3-(2-chlorophenyl)sulfanyl-6-[6-(tetrahydropyran-4-ylmethoxy)-2-pyridyl]-6-(3-thienyl)piperidine-2,4-dione] stands 0.025 µM.
In the case of `O=C1CCC(COc2cccc(C3(c4ccsc4)CC(=O)C(Sc4ccccc4Cl)C(=O)N3)n2)O1` (single isomer, unassigned) [Example 192, 3-(2-chlorophenyl)sulfanyl-6-[6-[(5-oxotetrahydrofuran-2-yl)methoxy]-2-pyridyl]-6-(3-thienyl)piperidine-2,4-dione] it was 0.232 µM.
For `O=C1CCC(COc2cccc(C3(c4ccsc4)CC(=O)C(Sc4ccccc4Cl)C(=O)N3)n2)O1` (single isomer, unassigned) [Example 193, 3-(2-chlorophenyl)sulfanyl-6-[6-[(5-oxotetrahydrofuran-2-yl)methoxy]-2-pyridyl]-6-(3-thienyl)piperidine-2,4-dione], the IC50 was found to be 0.059 µM.
Under `O=C1CC(c2ccsc2)(c2cccc(OCC3CCCC3)n2)NC(=O)C1Sc1ccccc1Cl` (single isomer, unassigned) [Example 194, 3-(2-chlorophenyl)sulfanyl-6-[6-(cyclopentyl-methoxy)-2-pyridyl]-6-(3-thienyl)piperidine-2,4-dione] stands 0.005 µM.
In the case of `O=C1CC(c2ccsc2)(c2cccc(OCC3CCCO3)n2)NC(=O)C1Sc1ccccc1Cl` (single isomer, unassigned) [Example 195, 3-(2-chlorophenyl)sulfanyl-6-[6-(tetrahydrofuran-2-ylmethoxy)-2-pyridyl]-6-(3-thienyl)piperidine-2,4-dione] it was 0.143 µM; in that of `O=C1CC(c2ccsc2)(c2cccc(OCC3CC(F)(F)C3)n2)NC(=O)C1Sc1ccccc1Cl` (single isomer, unassigned) [Example 196, 3-(2-chlorophenyl)sulfanyl-6-[6-[(3,3-difluorocyclo-butyl)methoxy]-2-pyridyl]-6-(3-thienyl)piperidine-2,4-dione], 0.036 µM; in that of `O=C1CC(c2ccsc2)(c2cccc(Oc3ccccc3Br)n2)NC(=O)C1Sc1ccccc1Cl` (single isomer, unassigned) [Example 197, 6-[6-(2-bromophenoxy)-2-pyridyl]-3-(2-chlorophenyl) sulfanyl-6-(3-thienyl) piperidine-2,4-dione], 0.01 µM.
In the case of `O=C1CC(c2ccsc2)(c2cccc(Sc3ccc(F)cc3)n2)NC(=O)C1Sc1ccccc1Cl` (single isomer, unassigned) [Example 198, 3-(2-chlorophenyl)sulfanyl-6-[6-(4-fluorophenyl)sulfanyl-2-pyridyl]-6-(3-thienyl)piperidine-2,4-dione] it was 0.177 µM.
Take `O=C1CC(c2ccsc2)(c2cccc(OCC3COC3)n2)NC(=O)C1Sc1ccccc1Cl` (single isomer, unassigned) [Example 199, 3-(2-chlorophenyl)sulfanyl-6-[6-(oxetan-3-ylmethoxy)-2-pyridyl]-6-(3-thienyl) piperidine-2,4-dione]: the IC50 turned out to be 0.012 µM.
Under `CCOCCOc1cccc(C2(c3ccsc3)CC(=O)C(Sc3ccccc3Cl)C(=O)N2)n1` (single isomer, unassigned) [Example 200, 3-(2-chlorophenyl)sulfanyl-6-[6-(2-ethoxyethoxy)-2-pyridyl]-6-(3-thienyl) piperidine-2,4-dione] stands 0.229 µM; under `COCCCOc1cccc(C2(c3ccsc3)CC(=O)C(Sc3ccccc3Cl)C(=O)N2)n1` (single isomer, unassigned) [Example 201, 3-(2-chlorophenyl)sulfanyl-6-[6-(3-methoxypropoxy)-2-pyridyl]-6-(3-thienyl) piperidine-2,4-dione], 0.037 µM; under `O=C1CC(c2ccsc2)(c2cccc(Oc3cncc(F)c3)n2)NC(=O)C1Sc1ccccc1Cl` (single isomer, unassigned) [Example 202, 3-(2-chlorophenyl)sulfanyl-6-[6-[(5-fluoro-3-pyridyl)oxy]-2-pyridyl]-6-(3-thienyl) piperidine-2,4-dione], 0.018 µM.
Take `O=C1CC(c2ccsc2)(c2cccc(Cc3ccccc3)n2)NC(=O)C1Sc1ccccc1Cl` (single isomer, unassigned) [Example 204, 6-(6-benzyl-2-pyridyl)-3-(2-chlorophenyl)sulfanyl-6-(3-thienyl)piperidine-2,4-dione]: the IC50 was 0.007 µM.
On to `O=C1CC(c2ccsc2)(c2cccc(OC3CCCCC3)n2)NC(=O)C1Sc1ccccc1Cl` (single isomer, unassigned) [Example 205, 3-(2-chlorophenyl)sulfanyl-6-[6-(cyclohexoxy)-2-pyridyl]-6-(3-thienyl) piperidine-2,4-dione], for which the 50% inhibitory concentration (IC50) was 0.058 µM.
Under `CC1(COc2cccc(C3(c4ccsc4)CC(=O)C(Sc4ccccc4Cl)C(=O)N3)n2)CC1` (single isomer, unassigned) [Example 206, 3-(2-chlorophenyl)sulfanyl-6-[6-[(1-methylcyclopropyl)methoxy]-2-pyridyl]-6-(3-thienyl)piperidine-2,4-dione] stands 0.027 µM.
In the case of `CC(Oc1cccc(C2(c3ccsc3)CC(=O)C(Sc3ccccc3Cl)C(=O)N2)n1)C1CC1` (single isomer, unassigned) [Example 207, 3-(2-chlorophenyl)sulfanyl-6-[6-(1-cyclopropylethoxy)-2-pyridyl]-6-(3-thienyl) piperidine-2,4-dione] it was 0.02 µM; in that of `O=C1CC(c2ccsc2)(c2cccc(OCCC3CCCCC3)n2)NC(=O)C1Sc1ccccc1Cl` (single isomer, unassigned) [Example 208, 3-(2-chlorophenyl)sulfanyl-6-[6-(2-cyclohexylethoxy)-2-pyridyl]-6-(3-thienyl) piperidine-2,4-dione], 0.149 µM.
